Reference: US20230399289A1, “ITACONIC ACID DERIVATIVES” (Sitryx Therapeutics Limited, priority 2020, published 2023)

What was measured:
[1] = test system: IL-6 cytokine output from THP-1 cells; assay: THP-1 AlphaLISA IL-6 cytokine assay; assay type: cell-based; conditions: Homo sapiens, THP-1, differentiated THP-1 cells, LPS 24 hr then Nigericin 1 hour
Description: (§1) Measuring Inhibitory Effects on IL-1β and IL-6 Cytokine Output from THP-1s
(§2) The cytokine inhibition profiles of compounds of formula (I) were determined in a differentiated THP-1 cell assay. All assays were performed in RPMI-1640 growth medium (Gibco), supplemented with 10% fetal bovine serum (FBS; Gibco), 1% penicillin-streptomycin and 1% sodium pyruvate unless specified otherwise. The IL-1β and IL-6 cytokine inhibition assays were each run in a background of differentiated THP-1 cells as described below. All reagents described were from Sigma-Aldrich unless specified otherwise. Compounds were prepared as 10 mM DMSO stocks.
(§3) THP-1 cells were expanded as a suspension up to 80% confluence in appropriate growth medium. Cells were harvested, suspended, and treated with an appropriate concentration of phorbol 12-myristate 13-acetate (PMA) over a 72 hr period (37° C./5% CO2).
(§4) Following 72 hrs of THP-1 cell incubation, cellular medium was removed and replaced with fresh growth media containing 1% of FBS. Working concentrations of compounds were prepared separately in 10% FBS treated growth medium and pre-incubated with the cells for 30 minutes (37° C./5% CO2). Following the 30 minute compound pre-incubation, THP-1s were treated with an appropriate concentration of LPS and the THP-1s were subsequently incubated for a 24 hr period (37° C./5% CO2). An appropriate final concentration of Nigericin was then dispensed into the THP-1 plates and incubated for 1 hour (37° C./5% CO2) before THP-1 supernatants were harvested and collected in separate polypropylene 96-well holding plates.
(§5) Reagents from each of the […] and IL-6 commercial kits (Perkin Elmer) were prepared and run according to the manufacturer's instructions. Subsequently, fluorescence signal detection in a microplate reader was measured (EnVision® Multilabel Reader, Perkin Elmer).
(§6) Percentage inhibition was calculated per cytokine by normalising the sample data to the high and low controls used within each plate (+/−LPS respectively). Percentage inhibition was then plotted against compound concentration and the 50% inhibitory concentration (IC50) was determined from the resultant concentration-response curve.

[2] = test system: NRF2 (nuclear factor erythroid 2-related factor 2); assay: NRF2 +/−GSH activation assay (DiscoverX PathHunter NRF2 translocation kit, U2OS cells); assay type: cell-based; conditions: Homo sapiens; for Emax: U2OS, normalised to dimethyl fumarate high control; for EC50: U2OS PathHunter cells, 6 hours
[3] = Hepatocyte stability assay, mouse; assay type: in vitro ADME; conditions: cryopreserved hepatocytes, 10 μM compound, 0.5×10^6 cells/mL, 60 min, read-out: T½
Description: (§7) Defrosted cryo-preserved hepatocytes (viability>70%) may be used to determine the metabolic stability of a compound via calculation of intrinsic clearance (Clint; a measure of the removal of a compound from the liver in the absence of blood flow and cell binding). Clearance data are particularly important for in vitro work as they can be used in combination with in vivo data to predict the half-life and oral bioavailability of a drug.
(§8) The metabolic stability in hepatocytes assay involves a time-dependent reaction using both positive and negative controls. The cells were pre-incubated at 37° C. and spiked with test compound (and positive control); samples were taken at pre-determined time intervals and analysed to monitor the change in concentration of the initial drug compound over 60 minutes. A buffer incubation reaction (with no hepatocytes present) acted as a negative control and two cocktail solutions, containing compounds with known high and low clearance values (verapamil/7-hydroxycoumarin and propranolol/diltiazem), acted as positive controls. • 1. The assay was run with a cell concentration of 0.5×10^6 cells/mL in Leibovitz buffer. • 2. All compounds and controls were run in duplicate. • 3. Compound concentration was 10 μM. • 4. All compounds and controls were incubated with both cells and buffer to show turnover was due to hepatic metabolism. • 5. All wells on the incubation plate had 326.7 μL of either cells or buffer added. • 6. Prior to assay, cell and buffer-only incubation plates were preincubated for 10 mins at 37° C. • 7. The assay was initiated by adding compounds, 3.3 μL of 1 mM in 10% DMSO-90% Buffer; final DMSO concentration is 0.1%. • 8. Samples were taken at regular timepoints (0, 5, 10, 20, 40, 60 min) until 60 mins. • 9. Sample volume was 40 μL and was added to 160 μL of crash solvent (acetonitrile with internal standard) and stored on ice. • 10. At the end of the assay, the crash plates were centrifuged at 3500 rpm for 20 mins at 4° C. • 11. 80 μL of clear supernatant was removed and mixed with 80 μL of deionised water before being analysed by LC-MS/MS.
(§9) Raw LC-MS/MS data was exported to, and analysed in, Microsoft Excel for determination of intrinsic clearance. The percentage remaining of a compound was monitored using the peak area of the initial concentration as 100%. Intrinsic clearance and half-life values were calculated using a graph of the natural log of percentage remaining versus the time of reaction in minutes. Half-life (min) and intrinsic clearance (Clint in μL min^−1 10^−6 cells) values were calculated using the gradient of the graph (the elimination rate constant, k) and Equations 1 and 2.

[4] = test system: hepatocytes; assay: Hepatocyte stability assay, mouse; assay type: in vitro ADME; conditions: 10 μM compound, 0.5×10^6 cells/mL, 60 min
Description: as §7, §8, §9

[5] = test system: IL-1β cytokine output from THP-1 cells; assay: THP-1 AlphaLISA IL-1β cytokine assay; assay type: cell-based; conditions: Homo sapiens, THP-1, differentiated THP-1 cells, LPS 24 hr then Nigericin 1 hour
Description: as §1, §2, §3, §4, §5, §6

[6] = Hepatocyte stability assay, human; assay type: in vitro ADME; conditions: cryopreserved hepatocytes, 10 μM compound, 0.5×10^6 cells/mL, 60 min, read-out: T½
Description: as §7, §8, §9

[7] = test system: hepatocytes; assay: Hepatocyte stability assay, human; assay type: in vitro ADME; conditions: 10 μM compound, 0.5×10^6 cells/mL, 60 min
Description: as §7, §8, §9

[8] = +GSH, 30 minute compound-GSH pre-incubation

Compound	IC50 [1]	Emax ([2]; +GSH)	Emax ([2]; −GSH)	EC50 [2, 8]	EC50 ([2]; −GSH)	half-life at 10 μM [3]	CIint [4]	IC50 [5]	half-life at 10 μM [6]	CIint [7]
C=C(CC(=O)OC1(c2c(Cl)cccc2Cl)CCC1)C(=O)OCC(=O)O [Example 8, 2-((4-(1-(2,6-dichlorophenyl)cyclobutoxy)-2-methylene-4-oxobutanoyl)oxy)acetic acid]	6 µM	170%	193%	18.7 µM	12.2 µM	0.15 h	223 μL min^−1 10^−6 cells	15.2 µM	2.37 h	11 μL min^−1 10^−6 cells
C=C(CC(=O)OC1(c2cc(Cl)cc(Cl)c2)CCC1)C(=O)OCCC(=O)O [Example 13, 3-((4-(1-(3,5-dichlorophenyl)cyclobutoxy)-2-methylene-4-oxobutanoyl)oxy)propanoic acid]	5.9 µM	143%	251%	11.6 µM	7.6 µM	< 0.05 h	>460 μL min^−1 10^−6 cells	12.5 µM	1.67 h	16 μL min^−1 10^−6 cells
C=C(CC(=O)OC1(c2ccc(C(F)(F)F)cc2)CCC1)C(=O)OCCC(=O)O [Example 22, 3-((2-methylene-4-oxo-4-(1-(4-(trifluoromethyl)phenyl)cyclobutoxy)butanoyl)oxy)propanoic acid]	11.2 µM	183%	225%	22.3 µM	14.9 µM	0.2 h	128 μL min^−1 10^−6 cells	10.3 µM	2.6 h	9 μL min^−1 10^−6 cells
C=C(CC(=O)OC1(c2ccc(C(F)(F)F)cc2)CCC1)C(=O)OC1(CC(=O)O)COC1 [Example 33, 2-(3-((2-methylene-4-oxo-4-(1-(4-(trifluoromethyl)phenyl)cyclobutoxy)butanoyl)oxy)oxetan-3-yl)acetic acid]	5.7 µM	118%	162%	20.7 µM	8.4 µM	0.3 h	82 μL min^−1 10^−6 cells	2.4 µM	3.37 h	7 μL min^−1 10^−6 cells
C=C(CC(=O)OC1(c2ccc(SC(F)(F)F)cc2)CCC1)C(=O)OCC(=O)O [Example 34, 2-((2-methylene-4-oxo-4-(1-(4-((trifluoromethyl)thio)phenyl)cyclobutoxy)butanoyl)oxy)acetic acid]	2.7 µM	2.8%	0%	> 100 µM	> 54.8 µM	0.383 h	74 μL min^−1 10^−6 cells	5.1 µM	1.93 h	11 μL min^−1 10^−6 cells
